Literature values as cited in patent US20190201417A1, “TOPICAL STEROID THERAPY FOR MUCOSAL AND DERMATOLOGICAL INFLAMMATORY DISEASE” (CINRX PHARMA, LLC, priority 2016, published 2019).
Where two headings read alike, the source gives them in different places.

What was measured:
[1] = tested on: Caco-2 cell monolayers; details: coadministration with chitosan glutamate
[2] = sheep, nasal application with chitosan glutamate
[3] = rats, nasal application with chitosan glutamate

## CCNC(=O)[C@@H]1CCCN1C(=O)[C@H](CCCNC(=N)N)NC(=O)[C@H](CC(C)C)NC(=O)[C@@H](COC(C)(C)C)NC(=O)[C@H](Cc1ccc(O)cc1)NC(=O)[C@H](CO)NC(=O)[C@H](Cc1c[nH]c2ccccc12)NC(=O)[C@H](Cc1cnc[nH]1)NC(=O)[C@@H]1CCC(=O)N1 [buserelin]
Intraduodenal application with chitosan hydrochloride in a gel formulation
  absolute bioavailability of buserelin: 5.1±1.5%
Intraduodenal application, baseline without chitosan hydrochloride
  absolute bioavailability of buserelin: 0.1±0.1%

## 9-desglycinamide-8-arginine vasopressin [DGAVP]
[1]
  transport of the peptide drug: increased markedly

## insulin
[2]
  blood glucose levels: significant reduction
[3]
  blood glucose levels: significant reduction
